Each compound was assayed on apyrase (assay: Screen for apyrase inhibitors (Method 1, in vitro phosphate-release absorbance assay)). Settings: inhibitor conc at 1 mM stock, 1 hr room temperature, absorbance 630 nm; rounded average of two assay results.
Type: biochemical
Protocol: Apyrase inhibitors useful as enhancers of pesticidal activity are assessed using an in vitro assay. The method of Windsor, Bio Techniques 33:1024-1030 (November 2002) was used as follows Screen for Apyrase Inhibitors- 96 well plates were used for the assay: (Greiner bio-one: REF-655901-96 well, PS, F-bottom, Clear, Non-binding) Buffers: • Reaction Buffer: 60 mM Hepes; 3 mM MgCl2, 3 mM CaCl2 and 3 mM ATP (pH 6.5) • Development Buffer A: 2% aqueous ammonium molybdate • Development Buffer B: 11% ascorbic acid in 37.5% TCA in water • Stop buffer C: 2% trisodium citrate in 2% acetic acid solution in water • Add 100 μl of reaction buffer to each well. • Add 10 μl of DMSO (control) or inhibitor/compound or compounds such as […] or orthovanadate to each well. […] A blank cell indicates either <10% observed inhibition or a large difference between repetitions. In certain examples, the lack of observed inhibition is due to a lack of solubility of the compound under assay conditions, rather than a lack of apyrase inhibitory activity.

Going from `O=C(NCC(=O)N1CCCCC1)c1cccc(S(=O)(=O)Nc2ccc(Br)cc2)c1` [I-281, 3-(N-(4-bromophenyl)sulfamoyl)-N-(2-oxo-2-(piperidin-1-yl)ethyl)benzamide] to `O=C(Nc1cccc(S(=O)(=O)Nc2ccc(Br)cc2)c1)c1ccc([N+](=O)[O-])s1` [I-702, N-(3-(N-(4-bromophenyl)sulfamoyl)phenyl)-5-nitrothiophene-2-carboxamide], the “% Inhibition of Apyrase” value rises from 39% to 73%.

Going from `COc1ccc(NS(=O)(=O)c2cccc(NC(=O)c3n[nH]c(=O)c4ccccc34)c2)cc1` [I-736, N-(3-(N-(4-methoxyphenyl)sulfamoyl)phenyl)-4-oxo-3,4-dihydrophthalazine-1-carboxamide] to `COc1ccc(NS(=O)(=O)c2cccc(C(=O)N3c4ccccc4CC3C)c2)cc1` (stereo not shown) [I-435, N-(4-methoxyphenyl)-3-(2-methylindoline-1-carbonyl)benzenesulfonamide], the “% Inhibition of Apyrase” value rises from 53% to 64%.

First: O=C(Nc1ccccc1OC(F)F)c1ccc(S(=O)(=O)Nc2ccccc2F)cc1 [I-383, N-(2-(difluoromethoxy)phenyl)-4-(N-(2-fluorophenyl)sulfamoyl)benzamide]
Second: COc1ccccc1NC(=O)c1ccc(NS(=O)(=O)c2ccc(Cl)c(C(F)(F)F)c2)cc1 [I-915, 4-((4-chloro-3-(trifluoromethyl)phenyl)sulfonamido)-N-(2-methoxyphenyl)benzamide]
The “% Inhibition of Apyrase” value of the first is higher: 66% for the first, 59% for the second.

First: CC(C)c1ccc(NC(=O)c2ccc(S(=O)(=O)N3CCCc4ccccc43)cc2)cc1 [I-864, 4-((3,4-dihydroquinolin-1(2H)-yl)sulfonyl)-N-(4-isopropylphenyl)benzamide]
Second: O=C(Nc1ccc(S(=O)(=O)N2CCc3ccccc32)cc1)c1cccc([N+](=O)[O-])c1 [I-980, N-(4-(indolin-1-ylsulfonyl)phenyl)-3-nitrobenzamide]
The “% Inhibition of Apyrase” value of the first is higher: 59% for the first, 58% for the second.

First: Cc1ccc(NC(=O)c2cccc(NS(=O)(=O)c3ccc(Br)cc3)c2)nc1 [I-646, 3-((4-bromophenyl)sulfonamido)-N-(5-methylpyridin-2-yl)benzamide]
Second: O=C(Nc1nccs1)c1cccc(NS(=O)(=O)c2ccc(Br)cc2)c1 [I-661, 3-((4-bromophenyl)sulfonamido)-N-(thiazol-2-yl)benzamide]
The “% Inhibition of Apyrase” value of the first is higher: 54% for the first, 26% for the second.

First: COc1ccc(NS(=O)(=O)c2ccc(C(=O)Nc3ccc4c(c3)OCCO4)cc2)cc1 [I-887, N-(2,3-dihydrobenzo[b][1,4]dioxin-6-yl)-4-(N-(4-methoxyphenyl)sulfamoyl)benzamide]
Second: N#Cc1cccc(NC(=O)c2ccc(NS(=O)(=O)c3ccc4c(c3)OCCO4)cc2)c1 [I-962, N-(3-cyanophenyl)-4-((2,3-dihydrobenzo[b][1,4]dioxine)-6-sulfonamido)benzamide]
The “% Inhibition of Apyrase” value of the first is higher: 43% for the first, 11% for the second.

First: Cc1ccc(C)c(S(=O)(=O)Nc2ccc(C(=O)Nc3cccc(C(F)(F)F)c3)cc2)c1 [I-922, 4-((2,5-dimethylphenyl)sulfonamido)-N-(3-(trifluoromethyl)phenyl)benzamide]
Second: O=C(Nc1cccc(S(=O)(=O)Nc2cccc(C(F)(F)F)c2)c1)c1ccco1 [I-759, N-(3-(N-(3-(trifluoromethyl)phenyl)sulfamoyl)phenyl) furan-2-carboxamide]
The “% Inhibition of Apyrase” value of the first is higher: 57% for the first, 28% for the second.

First: O=C(c1ccc(S(=O)(=O)Nc2ccccc2)cc1)N1CCCc2ccccc21 [I-397, N-phenyl-4-(1,2,3,4-tetrahydroquinoline-1-carbonyl)benzenesulfonamide]
Second: O=C(Nc1ccc2c(c1)CCC2)c1cccc(S(=O)(=O)N2CCc3ccccc32)c1 [I-539, N-(2,3-dihydro-1H-inden-5-yl)-3-(indolin-1-ylsulfonyl)benzamide]
The “% Inhibition of Apyrase” value of the first is lower: 45% for the first, 54% for the second.

Going from `COc1ccc(NS(=O)(=O)c2ccc(C(=O)Nc3ccc(F)cc3C)cc2)cc1` [I-416, N-(4-fluoro-2-methylphenyl)-4-(N-(4-methoxyphenyl)sulfamoyl)benzamide] to `Cc1cccc(NC(=O)c2ccc(NS(=O)(=O)c3ccc(Br)cc3)cc2)c1C` [I-913, 4-((4-bromophenyl)sulfonamido)-N-(2,3-dimethylphenyl)benzamide], the “% Inhibition of Apyrase” value rises from 13% to 59%.

First: O=C(Nc1ccc2c(c1)OCO2)c1ccc(C(=O)Nc2ccc3c(c2)OCO3)cc1 [I-876, N1,N4-bis(benzo[d][1,3]dioxol-5-yl)terephthalamide]
Second: O=C(Nc1ccc2c(c1)OCO2)c1ccc(NS(=O)(=O)c2ccc3c(c2)OCCO3)cc1 [I-921, N-(benzo[d][1,3]dioxol-5-yl)-4-((2,3-dihydrobenzo[b][1,4]dioxine)-6-sulfonamido)benzamide]
The “% Inhibition of Apyrase” value of the first is lower: 54% for the first, 57% for the second.

First: O=C(Nc1cccc(S(=O)(=O)Nc2cccc(C(F)(F)F)c2)c1)c1cc2c(s1)CCCC2 [I-724, N-(3-(N-(3-(trifluoromethyl)phenyl)sulfamoyl)phenyl)-4,5,6,7-tetrahydrobenzo[b]thiophene-2-carboxamide]
Second: O=C(Nc1cccc(Cl)c1)c1cccc(S(=O)(=O)Nc2ccc3c(c2)OCO3)c1 [I-197, 3-(N-(benzo[d][1,3]dioxol-5-yl)sulfamoyl)-N-(3-chlorophenyl)benzamide]
The “% Inhibition of Apyrase” value of the first is lower: 57% for the first, 70% for the second.

`CC1Cc2ccccc2N1S(=O)(=O)c1cccc(C(=O)Nc2ccc(S(=O)(=O)N(C)C)cc2)c1` (stereo not shown) [I-526, N-(4-(N,N-dimethylsulfamoyl)phenyl)-3-((2-methylindolin-1-yl)sulfonyl)benzamide] and `O=C(Nc1cccc(S(=O)(=O)N2CCOCC2)c1)c1cccc(S(=O)(=O)N2CCc3ccccc32)c1` [I-527, 3-(indolin-1-ylsulfonyl)-N-(3-(morpholinosulfonyl)phenyl)benzamide] are the same in “% Inhibition of Apyrase” value: 55% for the first, 55% for the second.

First: O=C(Nc1cccc([N+](=O)[O-])c1)c1ccc(Br)c(S(=O)(=O)Nc2ccc(Br)cc2)c1 [I-22, 4-bromo-3-(N-(4-bromophenyl)sulfamoyl)-N-(3-nitrophenyl)benzamide]
Second: O=C(Nc1cccc(Br)c1)c1ccc(NS(=O)(=O)c2cccc([N+](=O)[O-])c2)cc1 [I-940, N-(3-bromophenyl)-4-((3-nitrophenyl)sulfonamido)benzamide]
The “% Inhibition of Apyrase” value of the first is lower: 38% for the first, 50% for the second.

Compared with `O=C(Nc1cccc(S(=O)(=O)N2CCOCC2)c1)c1ccc(S(=O)(=O)Nc2ccc(Cl)cc2)cc1` [I-393, 4-(N-(4-chlorophenyl)sulfamoyl)-N-(3-(morpholinosulfonyl)phenyl)benzamide], `O=C(Nc1ccc(F)c([N+](=O)[O-])c1)c1ccc(S(=O)(=O)Nc2ccc(Cl)cc2)cc1` [I-203, 4-(N-(4-chlorophenyl)sulfamoyl)-N-(4-fluoro-3-nitrophenyl)benzamide] is higher in “% Inhibition of Apyrase” value: 57% for the first, 72% for the second.

Compared with `COc1cc(NC(=O)c2cccc(S(=O)(=O)Nc3ccc4c(c3)OCO4)c2)cc(OC)c1` [I-257, 3-(N-(benzo[d][1,3]dioxol-5-yl)sulfamoyl)-N-(3,5-dimethoxyphenyl)benzamide], `O=C(Nc1ccc(Cl)c(Cl)c1)c1ccc(NS(=O)(=O)c2ccc(F)c(F)c2)cc1` [I-926, N-(3,4-dichlorophenyl)-4-((3,4-difluorophenyl)sulfonamido)benzamide] is lower in “% Inhibition of Apyrase” value: 61% for the first, 56% for the second.

Going from `Cc1cnc(C(=O)Nc2cccc(S(=O)(=O)N(C)c3ccccc3)c2)cn1` [I-767, 5-methyl-N-(3-(N-methyl-N-phenylsulfamoyl)phenyl)pyrazine-2-carboxamide] to `O=C(Nc1ccc(S(=O)(=O)Nc2ccccc2Cl)cc1)c1ccc(Cl)c(Cl)c1` [I-982, 3,4-dichloro-N-(4-(N-(2-chlorophenyl)sulfamoyl)phenyl)benzamide], the “% Inhibition of Apyrase” value rises from 12% to 57%.

Compared with `COc1ccc([N+](=O)[O-])cc1NS(=O)(=O)c1ccc(C(=O)Nc2ccc(Cl)cc2)cc1` [I-382, N-(4-chlorophenyl)-4-(N-(2-methoxy-5-nitrophenyl)sulfamoyl)benzamide], `COc1ccc([N+](=O)[O-])cc1NS(=O)(=O)c1ccc(C(=O)Nc2ccc(F)cc2F)cc1` [I-412, N-(2,4-difluorophenyl)-4-(N-(2-methoxy-5-nitrophenyl)sulfamoyl)benzamide] is lower in “% Inhibition of Apyrase” value: 69% for the first, 18% for the second.

Compared with `O=C(Nc1ccccc1NS(=O)(=O)c1cccs1)c1ccc(Cl)cc1` [I-832, 4-chloro-N-(2-(thiophene-2-sulfonamido)phenyl)benzamide], `O=C(Nc1cccc2ncccc12)c1cccc(NS(=O)(=O)c2cccs2)c1` [I-638, N-(quinolin-5-yl)-3-(thiophene-2-sulfonamido)benzamide] is lower in “% Inhibition of Apyrase” value: 58% for the first, 57% for the second.

`COc1cc(OC)c(NS(=O)(=O)c2cc(C(=O)Nc3ccc(OC(F)(F)F)cc3)ccc2C)cc1Cl` [I-530, 3-(N-(5-chloro-2,4-dimethoxyphenyl)sulfamoyl)-4-methyl-N-(4-(trifluoromethoxy)phenyl)benzamide] was tested, and the “% Inhibition of Apyrase” value was 55%.

Reference: patent US12685312B2, “Sulfonamide apyrase inhibitors” (Texas Crop Science, Inc., priority 2022, dated 2026)
